# Test results reported in US10370366B2 (Flatley Discovery Lab, LLC, priority 2013, dated 2019).
# Molecular target: T1, human F508del CFTR (Homo sapiens, UniProt P13569, DEL508-508)
# T1 construct: expressed in transfected cells; host or cells: Fisher Rat Thyroid (FRT) cells
# Assay: CFTR-YFP High Throughput Assay
# Type: cell-based
# Conditions: FRT cells expressing human F508del CFTR and YFP; for Emax: EMax normalized to the positive control, read-out: % Efficacy
# Description: Assays for Detecting and Measuring the Effect of Compounds on F508del-CFTR Channels CFTR-YFP High Throughput Assay-CFTR Corrector Protocol:
# This protocol is designed to selectively screen small molecule compounds for F508del CFTR corrector activities in the HTS YFP (yellow fluorescent protein) flux assay. In this protocol, the cells are incubated with testing compounds for 24 hours, washed with PBS, stimulated with forskolin and a standard potentiator, and fluorescence in each plate well is measured kinetically read on a 384-well HTS plate reader, such as the Hamamatsu FDSS-6000.
# YFP fluorescence intensity values are acquired at high speed before and after iodide buffer is injected to the assay cells. Iodide enters the cells via active CFTR channels in the plasma membrane, and quenches the YFP fluorescence. The rate of fluorescence quenching is proportionate to the total CFTR activity in the cell membrane. F508del CFTR correctors increase the number of CFTR molecules in the testing cell plasma membrane, and thereby accelerate YFP quenching.
# This method was initially developed for bench top plate readers (Galietta et al., 2001), and was adapted to the HTS format (Sui et al. Assay Drug Dev. Technol. 2010).
# Fisher Rat Thyroid (FRT) cells stably expressing both human F508del CFTR and a halide-sensitive yellow fluorescent protein (YFP-H148Q/I152L 25,22) (Galietta et al. Am. J. Physiol Cell Physiol 281(5), C1734, 2001) were cultured on plastic surface in Coon's modified Ham's F12 medium supplemented with FBS 10%, L-glutamine 2 mM, penicillin 100 U/ml, and streptomycin 100 µg/ml. G418 (0.75-1.0 mg/ml) and zeocin (3.2 ug/ml) were used for selection of FRT cells expressing F508del CFTR and YFP. For primary screening, FRT cells were plated into 384-well black wall, transparent bottom microtiter plates (Costar; Corning Inc.) at a cell density of 20,000-40,000 per well. Test compound was applied to the cells at varying concentrations ranging from 2 nM-40 μM in either a 2-fold or 3-fold dilution series. Cells were incubated in a cell culture incubator at 37° C. with 5% CO2 for 24-26 h. Assay plates were washed with DPBS media (Thermo, cat# SH30028.02) to remove unbound cells and compound. Stimulation media (25 μL) containing 20 μM Forskolin & 30 μM P3 [6-(Ethyl-phenyl-sulfonyl)-4-oxo-1,4-dihydro-quinoline-3-carboxylic acid 2-methoxy-benzylamide] in Hams F-12 coon's modified media was added to the plate wells and incubated at room temperature for 60-120 min. […] (10 mM HEPES, 1 mM MgCl2, 3 mM KCl, 1 mM CaCl2, 150 mM NaI) was then added and fluorescence quench curves (Excitation 500 nm/Emission 540 nm; exposure 136 ms) were immediately recorded on an FDSS-6000 plate reader (Hamamatsu). Quench rates were derived from least squares fitting of the data as described by Sui et al (2010).
# CFTR-YFP High Throughput Assay-CFTR Potentiator Protocol:
# This protocol is designed to selectively screen small molecule compounds for F508del CFTR potentiator activities in the HTS YFP flux assay. Such compounds act acutely to stimulate CFTR already expressed on the membrane surface. In this protocol, the cells are incubated at 27° C. for 24 hours to homogeneously boost F508del CFTR expression in the cell membrane (low temperature correction), washed with PBS, treated with test compound, and CFTR activity is stimulated with forskolin for 1-2 hr. Measurement of ion flux is initiated by addition of iodide-containing buffer, and YFP quenching is kinetically recorded using a 384-well HTS plate reader, such as the Hamamatsu FDSS-6000.
# YFP fluorescence intensity values are acquired at high speed over a 1 min time course before and after iodide buffer is injected to the assay cells. Iodide enters the cells via active CFTR channels in the plasma membrane, and quenches the YFP fluorescence. The rate of fluorescence quenching is proportionate to total CFTR activity in the cell membrane. […]
# T1 sequence (P13569 with tags, fused parts or gaps DEL508-508): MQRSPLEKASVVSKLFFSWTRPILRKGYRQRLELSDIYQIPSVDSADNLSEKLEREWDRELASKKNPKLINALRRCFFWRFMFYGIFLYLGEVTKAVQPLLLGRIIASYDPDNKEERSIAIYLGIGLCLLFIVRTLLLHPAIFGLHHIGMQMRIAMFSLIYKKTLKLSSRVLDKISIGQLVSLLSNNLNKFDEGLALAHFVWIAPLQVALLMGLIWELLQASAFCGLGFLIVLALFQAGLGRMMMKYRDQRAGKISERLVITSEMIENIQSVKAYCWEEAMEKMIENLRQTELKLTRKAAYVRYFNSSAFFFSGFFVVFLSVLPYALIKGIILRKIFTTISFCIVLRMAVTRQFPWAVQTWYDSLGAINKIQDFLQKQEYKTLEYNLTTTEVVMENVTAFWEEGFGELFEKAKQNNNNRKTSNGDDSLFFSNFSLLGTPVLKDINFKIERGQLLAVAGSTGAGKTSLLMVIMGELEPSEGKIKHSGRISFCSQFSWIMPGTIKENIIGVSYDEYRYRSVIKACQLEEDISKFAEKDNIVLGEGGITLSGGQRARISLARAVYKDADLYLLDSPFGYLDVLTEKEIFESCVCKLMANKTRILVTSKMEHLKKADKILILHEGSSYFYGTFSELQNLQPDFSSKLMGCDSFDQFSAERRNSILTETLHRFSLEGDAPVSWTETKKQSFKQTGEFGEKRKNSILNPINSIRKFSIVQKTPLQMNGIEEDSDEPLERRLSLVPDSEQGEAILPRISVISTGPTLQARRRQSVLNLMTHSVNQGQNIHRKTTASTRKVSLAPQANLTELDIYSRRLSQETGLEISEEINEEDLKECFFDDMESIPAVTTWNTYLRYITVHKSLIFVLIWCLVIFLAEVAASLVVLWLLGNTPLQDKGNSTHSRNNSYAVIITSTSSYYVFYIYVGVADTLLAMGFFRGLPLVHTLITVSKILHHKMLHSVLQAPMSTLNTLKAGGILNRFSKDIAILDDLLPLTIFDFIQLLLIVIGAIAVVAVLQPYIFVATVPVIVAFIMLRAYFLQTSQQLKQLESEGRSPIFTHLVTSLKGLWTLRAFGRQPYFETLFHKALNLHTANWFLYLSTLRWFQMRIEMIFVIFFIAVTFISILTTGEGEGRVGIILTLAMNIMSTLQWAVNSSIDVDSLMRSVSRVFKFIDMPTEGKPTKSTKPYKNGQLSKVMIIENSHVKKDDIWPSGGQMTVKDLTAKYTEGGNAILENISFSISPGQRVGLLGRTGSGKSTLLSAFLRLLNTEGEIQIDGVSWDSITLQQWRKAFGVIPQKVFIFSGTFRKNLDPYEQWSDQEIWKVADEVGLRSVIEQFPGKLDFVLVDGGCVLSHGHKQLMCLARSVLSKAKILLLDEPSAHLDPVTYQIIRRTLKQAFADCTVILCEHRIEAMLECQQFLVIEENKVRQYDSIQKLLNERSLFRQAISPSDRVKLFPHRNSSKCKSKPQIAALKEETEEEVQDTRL
Emax [%],EC50 [µM],Compound
30 to 80,–,"CCc1ccc(N(CC)C(=O)Cn2nc(Cc3cccnc3)c3ccc(C)cc3c2=O)cc1 [Example 28, N-ethyl-N-(4-ethylphenyl)-2-(7-methyl-1-oxo-4-(pyridin-3-ylmethyl)phthalazin-2(1H)-yl)acetamide]"
30 to 80,–,"CCc1ccc(N(CC)C(=O)Cn2nc(Cc3cccnc3)c3cc(C)ccc3c2=O)cc1 [Example 29, N-ethyl-N-(4-ethylphenyl)-2-(6-methyl-1-oxo-4-(pyridin-3-ylmethyl)phthalazin-2(1H)-yl)acetamide]"
30 to 80,–,"CCc1ccc(N(CC)C(=O)Cn2nc(Cc3cccnc3)c3cccc(C)c3c2=O)cc1 [Example 30, N-ethyl-N-(4-ethylphenyl)-2-(8-methyl-1-oxo-4-(pyridin-3-ylmethyl)phthalazin-2(1H)-yl)acetamide]"
30 to 80,–,"CCc1ccc(N(CC)C(=O)Cn2nc(Cc3cccnc3)c3c(C)cccc3c2=O)cc1 [Example 31, N-ethyl-N-(4-ethylphenyl)-2-(5-methyl-1-oxo-4-(pyridin-3-ylmethyl)phthalazin-2(1H)-yl)acetamide]"
10 to 30,–,"CCc1ccc(N(CC)C(=O)Cn2nc(Cc3cccnc3)c3cc(OC)c(OC)cc3c2=O)cc1 [Example 32, 2-(6,7-dimethoxy-1-oxo-4-(pyridin-3-ylmethyl)phthalazin-2(1H)-yl)-N-ethyl-N-(4-ethylphenyl)acetamide]"
30 to 80,–,"CCc1ccc(N(CC)C(=O)Cn2nc(Cc3cccnc3)c3ccc(C(C)(C)C)cc3c2=O)cc1 [Example 33, 2-(7-(tert-butyl)-1-oxo-4-(pyridin-3-ylmethyl)phthalazin-2(1H)-yl)-N-ethyl-N-(4-ethylphenyl)acetamide]"
30 to 80,–,"CCc1ccc(N(CC)C(=O)Cn2nc(Cc3cccnc3)c3cc(C(C)(C)C)ccc3c2=O)cc1 [Example 34, 2-(6-(tert-butyl)-1-oxo-4-(pyridin-3-ylmethyl)phthalazin-2(1H)-yl)-N-ethyl-N-(4-ethylphenyl)acetamide]"
30 to 80,–,"CCc1ccc(N(CC)C(=O)Cn2nc(Cc3cccnc3)c3ccc(OC)cc3c2=O)cc1 [Example 35, N-ethyl-N-(4-ethylphenyl)-2-(7-methoxy-1-oxo-4-(pyridin-3-ylmethyl)phthalazin-2(1H)-yl)acetamide]"
30 to 80,–,"CCc1ccc(N(CC)C(=O)Cn2nc(Cc3cccnc3)c3cc(OC)ccc3c2=O)cc1 [Example 36, N-ethyl-N-(4-ethylphenyl)-2-(6-methoxy-1-oxo-4-(pyridin-3-ylmethyl)phthalazin-2(1H)-yl)acetamide]"
30 to 80,–,"CCc1ccc(N(CC)C(=O)Cn2nc(Cc3cccnc3)c3cccc(F)c3c2=O)cc1 [Example 37, N-ethyl-N-(4-ethylphenyl)-2-(8-fluoro-1-oxo-4-(pyridin-3-ylmethyl)phthalazin-2(1H)-yl)acetamide]"
30 to 80,< 10,"CCc1ccc(N(CC)C(=O)Cn2nc(Cc3cccnc3)c3cc(Cl)c(Cl)cc3c2=O)cc1 [Example 38, 2-(6,7-dichloro-1-oxo-4-(pyridin-3-ylmethyl)phthalazin-2(1H)-yl)-N-ethyl-N-(4-ethylphenyl)acetamide]"
30 to 80,> 20,"CCc1ccc(N(CC)C(=O)Cn2nc(Cc3cccnc3)c3ccc(Cl)cc3c2=O)cc1 [Example 39, 2-(7-chloro-1-oxo-4-(pyridin-3-ylmethyl)phthalazin-2(1H)-yl)-N-ethyl-N-(4-ethylphenyl)acetamide]"
30 to 80,–,"CCc1ccc(N(CC)C(=O)Cn2nc(Cc3cccnc3)c3cc(Cl)ccc3c2=O)cc1 [Example 40, 2-(6-chloro-1-oxo-4-(pyridin-3-ylmethyl)phthalazin-2(1H)-yl)-N-ethyl-N-(4-ethylphenyl)acetamide]"
30 to 80,< 10,"CCc1ccc(N(CC)C(=O)Cn2nc(Cc3cccnc3)c3ccncc3c2=O)cc1 [Example 41, N-ethyl-N-(4-ethylphenyl)-2-(4-oxo-1-(pyridin-3-ylmethyl)pyrido[3,4-d]pyridazin-3(4H)-yl)acetamide]"
